Assay results from patent US12544356B2, “Combination of a chromene compound and a second active agent” (EUCLISES PHARMACEUTICALS, INC., priority 2016, dated 2026).

Columns and labels:
[1] = system: CT26 xenograft murine colon carcinoma model; experiment: CT26 tumor rejection, COX-2 inhibitor with anti-PD1 antibody (Example 2); assay type: in vivo, female BALB/c mice; settings: up to 50 days following inoculation, COX-2 inhibitor oral daily from day 0, anti-PD-1 200 μg/mouse i.p.
Procedure: CT26.WT cells were cultured under standard conditions. They were harvested with trypsin and washed with PBS. 10^5 cells were injected into the right flank of 6 week old female BALB/c mice in total volume of 100 μL. Tumor size was quantified as the mean of the longest diameter and its perpendicular.

[2] = Body weight in HT-29 xenograft study (Example 1); assay type: in vivo, CB17SCID male mice
Procedure: (§1) 48 CB17SCID male mice were implanted with 2.5×10^6 HT29 cells. Growth of the tumor was calculated for each animal using a caliper and the equation: V=π×ab^2/6.
(§2) Mouse weight and tumor volume measurements were taken on days 0, 3, 6, 9, 12, 15, 18, 21, and 22 following randomization.

[3] = Plasma concentration of Compound A01 and erlotinib (Example 1); assay type: in vivo, CB17SCID male mice; settings: for concentration at 2 h / concentration at 6 h: male, CB17SCID, mouse, plasma; for concentration at 2 h: 2 hours post dosing; for concentration at 6 h: 6 hours post dosing
Procedure: as §1, §2

[4] = system: immune cell infiltration into the tumors (CT26); experiment: Immune response to CT26 tumors: tumor-infiltrating and splenic immune cells (Example 3); assay type: in vivo, Female BALB/c mice; settings: Day 16; compared to vehicle treated mice
Procedure: Female BALB/c mice were inoculated with 10^5 CT26 colorectal cancer cells as in Example 2. […] Anti-PD1 antibody was administered i.p. (200 μg/mouse) at days 9 and 14 post inoculation. Tumors were analyzed at day 16 (7 days after first anti-PD1 administration).

[5] = system: HT-29 xenograft murine colon carcinoma model; experiment: HT-29 xenograft tumor growth, Compound A01 with erlotinib (Example 1); assay type: in vivo, CB17SCID male mice
Procedure: HT-29 cells were cultured in medium for one week. Following digestion cells were centrifuged for 3-5 minutes at 800-1500 rpm. Cells were washed with PBS and centrifuged again under the same condition. Cells were then suspended in PBS to a final concentration of […]. 200 μL of the HT-29 cell suspension were subcutaneously injected into the mice left forelimb axillary (2.5×10^6 HT-29 cells per mouse).
as §1, §2

effect of oral dosing of erlotinib on plasma concentration of Compound A01 ([3]; 2 and 6 hours post dosing): influenced
concentration at 2 h ([3]; A01 1 mg/kg oral): 3610 ± 1350 ng/mL
concentration at 2 h ([3]; A01 10 mg/kg oral): 28400 ± 6020 ng/mL
concentration at 6 h ([3]; A01 1 mg/kg oral): 2250 ± 529 ng/mL
concentration at 6 h ([3]; A01 10 mg/kg oral): 19100 ± 5170 ng/mL
Structure (SMILES): [2H]C([2H])([2H])c1cc(Br)cc2c1O[C@H](C(F)(F)F)C(C(=O)O)=C2 [Compound A01, (S)-6-bromo-8-trideuteromethyl-2-(trifluoromethyl)-2H-chromene-3-carboxylic acid]
tumor rejection / tumor growth [1]: did not prevent tumor growth
Body weight ([2]; Day 0, A01 1 mg/kg oral daily): 23.4 g
Body weight ([2]; Day 0, A01 10 mg/kg oral daily): 23.5 g
Body weight ([2]; Day 3, A01 1 mg/kg oral daily): 22.4 g
Body weight ([2]; Day 6, A01 1 mg/kg oral daily): 21.6 g
Body weight ([2]; Day 6, A01 10 mg/kg oral daily): 22.0 g
Body weight ([2]; Day 15, A01 1 mg/kg oral daily): 20.0 g
Body weight ([2]; Day 18, A01 1 mg/kg oral daily): 19.9 g
Body weight ([2]; Day 21, A01 1 mg/kg oral daily): 19.9 g
Body weight ([2]; Day 22, A01 1 mg/kg oral daily): 20.0 g
CD45+ (leukocyte), CD3+, CD8+, CD8+IFNγ+, CD4+IFNγ+, CD8+TNFα+ and CD4+TNFα+ cell infiltration into the tumors [4]: increase
suppression of tumor growth compared to vehicle ([5]; 10 mg/kg Compound A01 alone): 51%
Tumor Volume ([5]; Day 0, A01 1 mg/kg oral daily): 71.8 mm^3
Tumor Volume ([5]; Day 0, A01 10 mg/kg oral daily): 70.1 mm^3
Tumor Volume ([5]; Day 3, A01 1 mg/kg oral daily): 143.8 mm^3
Tumor Volume ([5]; Day 3, A01 10 mg/kg oral daily): 145.2 mm^3
Tumor Volume ([5]; Day 6, A01 1 mg/kg oral daily): 194.2 mm^3
Tumor Volume ([5]; Day 6, A01 10 mg/kg oral daily): 186.9 mm^3
Tumor Volume ([5]; Day 9, A01 1 mg/kg oral daily): 301.1 mm^3
Tumor Volume ([5]; Day 9, A01 10 mg/kg oral daily): 235.1 mm^3
Tumor Volume ([5]; Day 12, A01 1 mg/kg oral daily): 344.8 mm^3
Tumor Volume ([5]; Day 12, A01 10 mg/kg oral daily): 292.1 mm^3
Tumor Volume ([5]; Day 15, A01 1 mg/kg oral daily): 459.4 mm^3
Tumor Volume ([5]; Day 15, A01 10 mg/kg oral daily): 309.7 mm^3
Tumor Volume ([5]; Day 18, A01 1 mg/kg oral daily): 820.6 mm^3
Tumor Volume ([5]; Day 18, A01 10 mg/kg oral daily): 497.5 mm^3
Tumor Volume ([5]; Day 21, A01 1 mg/kg oral daily): 899.0 mm^3
Tumor Volume ([5]; Day 21, A01 10 mg/kg oral daily): 592.1 mm^3
Tumor Volume ([5]; Day 22, A01 1 mg/kg oral daily): 921.1 mm^3
Tumor Volume ([5]; Day 22, A01 10 mg/kg oral daily): 612.1 mm^3
slowing of tumor growth, comparison of therapies ([5]; HT-29 xenograft, compared to vehicle and to each therapy alone): superior to 50 mg/kg erlotinib
